From ChEMBL document CHEMBL5528053, “Discovery of Novel Isoquinoline Analogues as Dual Tubulin Polymerization/V-ATPase Inhibitors with Immunogenic Cell Death Induction” (J Med Chem, 2024)
Calls of active or inactive are those of the source. The calls are words filed in the database; no cut-off is given here.

Legend:
[1] = target: T1, Tubulin (Homo sapiens) (UniProt P68371+Q9H4B7+P0DPH7+P68366+Q13509+Q71U36+P04350+Q3ZCM7+P07437+P68363+Q9BQE3+Q6PEY2+Q13885+Q9BVA1+Q9BUF5); assay: Inhibition of tubulin polymerization (unknown origin) assessed as reduction in intracellular AC-alpha-tubulin at 50 to 200 nM measured for 6 hrs by […] Western blot analysis; assay type: cell-based; conditions: PC-3, dose 50-200 nM
[2] = test system: A549; assay: Antiproliferative activity against human A549 cells assessed as inhibition of cell growth after 72 hrs by MTT assay; assay type: functional, cell-based; conditions: A549, 72 h
[3] = test system: MDA-MB-231; assay: Antiproliferative activity against human MDA-MB-231 cells assessed as inhibition of cell growth after 72 hrs by MTT assay; assay type: functional, cell-based; conditions: MDA-MB-231, 72 h
[4] = Binding affinity to porcine brain tubulin polymerization assessed as dissociation constant measured after 20 mins by fluorescence based analysis; assay type: tissue-based, Sus scrofa
[5] = target: T1, Tubulin (Homo sapiens); assay: (§1) Inhibition of tubulin polymerization (unknown origin) measured every 60 secs for 60 mins by microplate reader based analysis; assay type: protein-complex assay; conditions: dose 1.25-40 µM
[6] = target: Tubulin; assay: as §1; assay type: protein-complex assay, Homo sapiens
[7] = target: Tubulin beta (Homo sapiens) (UniProt P68371+Q9H4B7+Q13509+P04350+Q3ZCM7+P07437+Q13885+Q9BVA1+Q9BUF5+A6NNZ2); assay: Binding affinity to beta-tubulin colchicine binding site in human PC-3 cells assessed as inhibition of EBI-beta-tubulin adduct band formation preincubated for 2 hrs followed by EBI addition measured after 1.5 hrs by EBI competition based Western blotting analysis; assay type: cell-based; conditions: dose 1-100 µM, time 3.5 hrs
[8] = test system: PC-3; assay: Downregulation of acetyl-alpha tubulin expression in human PC-3 cells incubated for 24 hrs by Western blot analysis; assay type: functional, cell-based; conditions: dose 50-200 nM
[9] = test system: PC-3; assay: Upregulation of detyrosinated-alpha tubulin expression in human PC-3 cells incubated for 24 hrs by Western blot analysis; assay type: functional, cell-based; conditions: dose 50-200 nM
[10] = test system: PC-3; assay: Inhibition of V-ATPase activity in human PC-3 cells at 800 nM measured after 24 hrs by colorimetric assay relative to control; assay type: cell-based
[11] = test system: PC-3; assay: Inhibition of V-ATPase activity in lysosomes of human PC-3 cells assessed as decrease in fluorescence at 50 to 200 nM incubated for 24 hrs by Lyso tracker red staining based inverted fluorescent microscopic analysis; assay type: subcellular; conditions: Lysosome, dose 50-200 nM
[12] = test system: PC-3; assay: Inhibition of V-ATPase activity in lysosomes of human PC-3 cells assessed as decrease in fluorescence at 50 to 200 nM incubated for 24 hrs by acridine orange staining based inverted fluorescent microscopic analysis; assay type: subcellular; conditions: Lysosome, dose 50-200 nM
[13] = test system: PC-3; assay: Induction of cell cycle arrest in human PC-3 cells assessed as accumulation of cells at G2/M phase at 100 nM incubated for 24 hrs by flow cytometry analysis (reference value: 19.5%); assay type: functional
[14] = test system: PC-3; assay: Induction of cell cycle arrest in human PC-3 cells assessed as reduction in CDC2 phosphorylation at Thr161 residue at 50 to 200 nM incubated for 24 hrs by DAPI staining based analysis; assay type: functional; conditions: dose 50-200 nM
[15] = test system: PC-3; assay: Induction of cell cycle arrest in human PC-3 cells assessed as reduction in cdc25c phosphorylation at ser216 residue at 50 to 200 nM incubated for 24 hrs by DAPI staining based analysis; assay type: functional; conditions: dose 50-200 nM
[16] = test system: PC-3; assay: Induction of intracellular ROS generation in human PC-3 cells incubated for 24 hrs by DCFH-DA staining based confocal microscopy based analysis; assay type: functional, cell-based; conditions: dose 50-200 nM
[17] = test system: PC-3; assay: Induction of apoptosis in human PC-3 cells measured after 24 hrs by annexin V-FITC and PI staining based flow cytometry analysis; assay type: functional, cell-based; conditions: dose 50-200 nM
[18] = test system: PC-3; assay: Induction of apoptosis in human PC-3 cells assessed as early apoptotic cells at 100 nM measured after 24 hrs by annexin V-FITC and PI staining based flow cytometry analysis (reference value: 1.03%); assay type: functional
[19] = test system: PC-3; assay: Induction of apoptosis in human PC-3 cells assessed as late apoptotic cells at 100 nM measured after 24 hrs by annexin V-FITC and PI staining based flow cytometry analysis (reference value: 2.37%); assay type: functional
[20] = Antitumor activity against mouse RM1 cells xenografted in immunocompetent […] mouse model assessed as tumor growth inhibition at 10 mg/kg, iv measured every two days for 14 days relative to control; assay type: functional; conditions: RM1, 336 h, time 14 day, read-out: TGI
[21] = Toxicity in ICR mouse assessed as effect on LDH level at 10 mg/kg, ip measured for 14 days; assay type: organism-based; conditions: in vivo, 336 h, time 14 day
[22] = Toxicity in ICR mouse assessed as effect on kidney at 10 mg/kg, ip measured for 14 days by H and E staining based analysis; assay type: organism-based; conditions: in vivo, 336 h, time 14 day
[23] = test system: PC-3; assay: Induction of endoplasmic reticulum (ER) stress in human PC-3 cells assessed as upregulation of CHOP phosphorylation level at 50 to 200 nM measured after 24 hrs by Western blot analysis; assay type: functional, cell-based; conditions: dose 50-200 nM
[24] = test system: PC-3; assay: Induction of immunogenic cell death in human PC-3 cells assessed as increase in CRT translocation to cell surface at 50 to 200 nM measured after 12 hrs by DAPI staining based analysis; assay type: functional; conditions: dose 50-200 nM
[25] = test system: PC-3; assay: Induction of immunogenic cell death in human PC-3 cells assessed as increase in HMGB1 release from nuclei at 50 to 200 nM measured after 24 hrs by DAPI staining based analysis; assay type: functional; conditions: dose 50-200 nM
[26] = test system: PC-3; assay: Induction of immunogenic cell death in human PC-3 cells assessed as decrease in HMGB1 content in tumor cells at 50 to 200 nM; assay type: functional, cell-based; conditions: dose 50-200 nM
[27] = test system: RM1; assay: Anticancer activity against mouse RM1 cells assessed as increase in CRT expression at 400 nM measured after 24 hrs by flow cytometry analysis; assay type: functional, cell-based
[28] = Antitumor immunity against mouse RM1 cells homografted in C57BL/6 mouse model assessed as increase in tumor infiltrating lymphocytes at 5 mg/kg, iv administered every two days for 14 days by flow cytometry analysis (reference value: 5.26%); assay type: functional; conditions: time 14 day
[29] = Antitumor immunity against mouse RM1 cells homografted in C57BL/6 mouse model assessed as increase in tumor infiltrating CD3+CD8+T cells (CTLs) at 10 mg/kg, iv administered every two days for 14 days by flow cytometry analysis (reference value: 0.89%); assay type: functional; conditions: time 14 day
[30] = Antitumor immunity against mouse RM1 cells homografted in C57BL/6 mouse model assessed as increase in tumor infiltrating helper T lymphocytes at 10 mg/kg, iv administered every two days for 14 days by flow cytometry analysis (reference value: 6.59%); assay type: functional; conditions: time 14 day
[31] = test system: RM1; assay: Antitumor immunity against mouse RM1 cells homografted in C57BL/6 mouse model assessed as increase in tumor infiltrating CD3+CD8+T cells (CTLs) in spleen at 5 to 10 mg/kg, iv administered every two days for 14 days by flow cytometry analysis; assay type: functional, organism-based; conditions: dose 5-10 mg/kg, time 14.0 day
[32] = test system: RM1; assay: Antitumor immunity against mouse RM1 cells homografted in C57BL/6 mouse model assessed as increase in tumor infiltrating helper T lymphocytes in spleen at 5 to 10 mg/kg, iv administered every two days for 14 days by flow cytometry analysis; assay type: functional, organism-based; conditions: dose 5-10 mg/kg, time 14.0 day
[33] = test system: RM1; assay: Antitumor immunity against mouse RM1 cells homografted in C57BL/6 mouse model assessed as increase in activation of tumor infiltrating lymphocytes in spleen at 5 to 10 mg/kg, iv administered every two days for 14 days by flow cytometry analysis; assay type: functional, organism-based; conditions: dose 5-10 mg/kg, time 14.0 day

SMILES: COc1cc(-c2nc(C(N)=O)cc3cc4c(cc23)OCCO4)cc(Br)c1OC
- inhibition [1]: Active
- IC50 [2]: 0.09 µM
- IC50 [3]: 0.13 µM
- Kd [4]: 6.56 µM
- inhibition [5]: Dose-Dependent Effect
- IC50 [6]: 6.33 µM
- Activity [7]: Dose-Dependent Effect
- Activity [8]: Dose-Dependent Effect
- Activity [9]: Dose-Dependent Effect
- inhibition [10]: 77.4%
- inhibition [11]: Active
- inhibition [12]: Active
- Activity [13]: 42.8%
- Activity [14]: Active
- Activity [15]: Active
- Activity [16]: Dose-Dependent Effect
- Activity [17]: Dose-Dependent Effect
- Activity [18]: 21.6%
- Activity [19]: 10.3%
- inhibition in vivo at 10 mg/kg [20]: 70.2%
- Activity [21]: Non-Toxic
- Activity [22]: Non-Toxic
- Activity [23]: Active
- Activity [24]: Active
- Activity [25]: Active
- Activity [26]: Active
- Activity [27]: Active
- Activity [28]: 7.01%
- Activity [29]: 2.27%
- Activity [30]: 14.2%
- Activity [31]: Active
- Activity [32]: Active
- Activity [33]: Active
